{"source": "patent US4400384A", "about": "“5-o-Cyanobenzyl-4,5,6,7-tetrahydrothieno [3,2-c] pyridine methanesulfonate and other novel salts thereof” (Sanofi, S.A., priority 1980, dated 1983)", "key": {"Vasodilator activity": {"assay": "Vasodilator activity", "assay_type": "in vivo", "settings": "result in words"}, "red globules [1]": {"system": "red globules", "assay": "Anti-sludge activity in vitro on red globules", "assay_type": "cell-based"}, "[2]": {"system": "central nervous system activity of chloral and \"Nembutal\"", "assay": "Potentiation of central nervous system activity of chloral and Nembutal", "assay_type": "in vivo"}, "rats": {"system": "rats", "assay": "Sub-acute toxicity in rats, oral, 6 weeks", "assay_type": "in vivo", "protocol": "These tests were carried out on four groups of 30 rats, 15 males and 15 females in each group; the rats all being type SPF adults. Administration was by the oral route, carried out 5 days per week for a period of 6 consecutive weeks."}, "Acute toxicity in mice": {"assay": "Acute toxicity in mice", "settings": "mouse, in vivo", "protocol": "(§1) The preferred methanesulfonate salt of the present invention was tested for acute and sub-acute toxicity and the results obtained on rats and mice by oral, intravenous and intraperitoneal administration are set forth in the tables below."}, "red globules [3]": {"system": "red globules", "assay": "Anti-sludge activity in vivo in the rat"}, "patients": {"system": "patients", "assay": "Clinical study, second series: tolerance", "assay_type": "in vivo, human", "settings": "oral capsules, 700 mg per day, 7 days plus morning of 8th day, 11 patients", "protocol": "In a second series of tests, the MS salt was again administered orally in the form of capsules containing 175 mg of the active salt. Eleven patients were treated, each patient receiving 4 capsules per day containing a total of 700 mg of MS salt divided in two portions of 350 mg morning and evening, after meals, for 7 days, and on the 8th day in the morning only. Therefore, the total amount of active ingredient (MS salt) was 5250 mg to each subject."}, "[4]": {"system": "musculotropic isolated intestine", "assay": "Anti-spasmodic activity on isolated intestine"}, "human patients": {"system": "human patients", "assay": "Clinical study, first series: tolerance", "assay_type": "in vivo", "settings": "oral capsules, 350 to 1400 mg per day, 3 weeks, 12 patients", "protocol": "The MS salt has been administered to human patients orally in the form of capsules each containing 175 mg of the active salt. Twelve patients were treated in four groups; one group receiving 2 capsules per day (350 mg); a second group receiving 4 capsules per day (700 mg); a third group receiving 6 capsules per day (1050 mg); and the fourth group receiving 8 capsules per day (1400 mg). This regimen was continued for 3 weeks."}, "[5]": {"system": "blood-platelet aggregation", "assay": "Inhibition of blood-platelet aggregation (general statement)", "assay_type": "in vivo", "settings": "result in words", "protocol": "(§2) The inhibitor action on blood-platelet aggregation of the salts of the present invention was determined by two different standard methods known to the art.\n(§3) The first method, involving the use of ADP (adenosine diphosphate), is that of Ferrand J. C., Gaich C., Dumas, A.--EVALUATION DE L' EFFET ANTI-AGREGANT DE LA TICLOPIDINE PAR UNE TECHNIQUE SUR SANG TOTAL. COMM. SOCIETE DE BIOLOGIE DE TOULOUSE (TOULOUSE Feb. 9, 1978), RESUME IN: REV MED TOULOUSE, 1978, 14, (SUPPL. 5) 680, referred to hereinafter as the ADP method.\nThe second method is that described in Ferrand J. C., Lale A.--NUMERATION ET AGREGATION PLAQUETTAIRE A L AIDE DE L AUTOCOUNTER. APPLICATION A L ETUDE DE LA TICLOPIDINE. COMM. SYMPOSIUM TECHNICON INDUSTRIE (PARIS, June 15, 1978); Ferrand J. C., Lale A.--EVALUATION EX-VIVO DE L AGREGATION PLAQUETTAIRE PAR UNE TECHNIQUE AUTOMATIQUE SUR SANG TOTAL COMM. SOCIETE FRANCAISE DE BIOLOGIE CLINIQUE (PARIS Sept. 28, 1979); and J. C. Ferrand, A. Lale, D. Aubert and G. Barthelemy--APPRECIATION QUANTITATIVE DE L' ACTIVITE ANTI-AGREGANTE DE LA TICLOPIDINE PAR VOIE AUTOMATIQUE. COMM. REUNION DE L' ASOCIATION FRANCAISE DE PHARMACOLOGISTES DIJON (May 2-3, 1980), and is referred to hereafter as the collagen method. […]"}, "central nervous system": {"system": "central nervous system", "assay": "Central nervous system activity per se, mice", "assay_type": "in vivo"}, "dogs": {"system": "dogs", "assay": "Toxicity by intravenous administration in dogs", "assay_type": "in vivo", "protocol": "Further tests were conducted by intravenous administration of the MS salt to the dogs. In these tests 15 dogs were divided into three groups of 2 male and 3 female dogs each. One group was used as a control; only the 5 ml of […] aqueous saline vehicle being injected intravenously. The other two groups of dogs received intravenous injections of the MS salt in the same vehicle; one group a 2.5% solution of the MS salt at a dosage of 7.5 mg/Kg and the other group receiving the same solution at a dosage of 15 mg/Kg."}, "[6]": {"system": "blood-platelet aggregation (ADP)", "assay": "Inhibitor action on blood-platelet aggregation, ADP method (ex vivo after gastric tube dosing)", "assay_type": "in vivo, female rats of the Wistar type", "settings": "100 mg/Kg base equivalent at 48, 24 and 2 h before blood drawing", "protocol": "as §2, §3\nGroups of 10 female rats of the Wistar type were each dosed with one of the base or one of the salts of the invention and with the corresponding maleate salt of Amselem U.S. Pat. No. 4,097,482, at periods of 48 hours, 24 hours and 2 hours prior to drawing blood for testing by the ADP and collagen techniques referred to above. The active medicaments were administered by means of a gastric tube in the form of a 5% aqueous solution of gum arabic. A dosage level of 100 mg/Kg was used for the base, and for the salts an amount was used sufficient to provide the equivalent amount of the base portion of the salt."}, "Acute toxicity in rats": {"assay": "Acute toxicity in rats", "settings": "rat, in vivo", "protocol": "as §1"}, "Analgesic activity": {"assay": "Analgesic activity", "settings": "in vivo"}, "Hemostasis activity": {"assay": "Hemostasis activity", "settings": "in vivo"}, "[7]": {"settings": "oral, 50, 150, 300 mg/Kg, 5 days per week, 6 weeks"}}, "note": "“Also recorded” adds a separate entry of the source.", "data": [{"compound": "CS(=O)(=O)O.N#Cc1ccccc1CN1CCc2sccc2C1", "note": "[Methanesulfonate, 5-o-Cyanobenzyl-4,5,6,7-tetrahydrothieno [3,2-c] pyridine methanesulfonate]", "values": [{"measurement": "peripheral and cerebral vasodilator activity", "setting": "Vasodilator activity", "value": "lacks the peripheral and cerebral vasodilator activity"}, {"measurement": "vasodilator action", "setting": "Vasodilator activity; listed as MS salt, methanesulfonate", "value": "without causing vasodilator action; also recorded: free of anti-inflammatory or vasodilator activity as is the MS salt"}, {"measurement": "anti-sludge activity in vitro", "setting": "red globules [1]", "value": "anti-sludge activity in vitro on red globules"}, {"measurement": "potentiation of central nervous system activity of Nembutal", "setting": "[2]; \"Nembutal\" (Ca or Na pentobarbital)", "value": "does potentialize the central nervous system activity"}, {"measurement": "potentiation of central nervous system activity of chloral", "setting": "[2]; chloral", "value": "does potentialize the central nervous system activity of chloral"}, {"measurement": "toxicity and tolerance (overall)", "setting": "rats; conclusion from acute and sub-acute tests", "value": "low toxicity and good tolerance"}, {"measurement": "microscopic examination of principal organs", "setting": "rats; end of test period or 15 days thereafter", "value": "normal in appearance with exception of some signs of gastric intolerance"}, {"measurement": "histological examination of the organs", "setting": "rats; oral, 6 weeks", "value": "good tolerance"}, {"measurement": "behavior of the dosed animals", "setting": "rats; [7]", "value": "No significant modification of the behavior"}, {"measurement": "death attributable to administration", "setting": "rats; [7]", "value": "nor was there any death attributable to the administration of the MS salt"}, {"measurement": "LD50 at 8 h", "setting": "Acute toxicity in mice; intravenous, read-out: LD50, intravenous, mice", "value": 134, "unit": "mg/kg"}, {"measurement": "LD50 at 8 h", "setting": "Acute toxicity in mice; ip, intraperitoneal, read-out: LD50, intraperitoneal, mice", "value": 898, "unit": "mg/kg"}, {"measurement": "LD50 at 8 h", "setting": "Acute toxicity in mice; oral, read-out: LD50, oral, mice", "value": 883, "unit": "mg/kg"}, {"measurement": "anti-sludge activity in vivo, intravenous", "setting": "red globules [3]; administered intravenously", "value": "also in vivo when administered orally or intravenously in the rat"}, {"measurement": "anti-sludge activity in vivo, oral", "setting": "red globules [3]; administered orally", "value": "also in vivo when administered orally"}, {"measurement": "clinical tolerance", "setting": "patients", "value": "Clinical tolerance was excellent"}, {"measurement": "anti-spasmodic activity", "setting": "[4]", "value": "exhibit anti-spasmodic activity"}, {"measurement": "clinical tolerance", "setting": "human patients", "value": "Clinical tolerance was excellent"}, {"measurement": "side effects or incidents", "setting": "human patients", "value": "no side effects or incidents being noted"}, {"measurement": "inhibitor action against blood-platelet aggregation", "setting": "[5]", "value": "excellent inhibitory action against blood-platelet aggregation"}, {"measurement": "influence on the central nervous system per se, mice", "setting": "central nervous system", "value": "no influence on the central nervous system"}, {"measurement": "toxicity and tolerance in dogs (overall)", "setting": "dogs; conclusion from oral and intravenous tests", "value": "of low toxicity and well-tolerated by dogs"}, {"measurement": "death", "setting": "dogs; intravenous, 7.5 and 15 mg/Kg, 2.5% solution in 9% aqueous saline, 23 consecutive days", "value": "without the death of any dog"}, {"measurement": "BLOOD PLATELET AGGREGATION, ADP, 1 mn 30 s", "setting": "[6]; 1 mn 30 s, controls 0.29", "value": 0.73}, {"measurement": "BLOOD PLATELET AGGREGATION, ADP, 3 mn", "setting": "[6]; 3 mn, controls 0.40", "value": 0.88}, {"measurement": "LD50 at 8 h", "setting": "Acute toxicity in rats; intravenous, read-out: LD50, intravenous, rats", "value": 80.2, "unit": "mg/kg"}, {"measurement": "LD50 at 8 h", "setting": "Acute toxicity in rats; ip, intraperitoneal, read-out: LD50, intraperitoneal, rats", "value": 719, "unit": "mg/kg"}, {"measurement": "analgesic properties", "setting": "Analgesic activity", "value": "free of analgesic properties"}, {"measurement": "hemostasis activity", "setting": "Hemostasis activity", "value": "no hemostasis activity"}]}]}
